In PMC11858854, “In Vitro and In Vivo Assessment of Pharmacokinetic Profile of Peramivir in the Context of Inhalation Therapy” (Pharmaceuticals, 2025):

Experiments:
NCI-H441 cell model = assay: Bidirectional transport, NCI-H441 air-liquid culture model; type: in vitro ADME, human; conditions: NCI-H441, 2 μM
Method: NCI-H441 cells were cultured in RPMI-1640 medium (Gibco, Thermo, CA, USA) supplemented with 10% FBS and PS (100 U/mL) at 37 °C in a humidified 5% CO2 incubator, and the medium was changed every other day. […] Then, 850 μL of complete medium (containing 200 nM dexamethasone) was added to the basolateral chamber. […] Subsequently, an air-interfaced culture (AIC) was initiated by supplying 650 μL of culture medium to the basolateral chamber only. The culture medium was replaced every other day.
(§1) We removed the liquid from the apical and basolateral of the Transwell, rinsed the cells three times with a buffer containing HBSS, 10 mM Hepes, and 0.1% BSA (Buffer A), and then added Buffer A (100 µL for the apical side and 600 µL for the basolateral side) for pre-incubation for 30 min at 37 °C. For the transport studies in the apical to basolateral (A-B) direction, 100 μL of pre-warmed test solution (Buffer A containing 2 µM positive control drugs or peramivir) was added to the apical side, while 600 μL of pre-warmed assay buffer, a buffer containing HBSS, 10 mM Hepes, and 1% BSA (Buffer B), was added to the basolateral compartment.

[1] = tested on: NCI-H441/dTHP co-culture model; assay: Bidirectional transport, NCI-H441/dTHP co-culture model; type: in vitro ADME, human; conditions: NCI-H441/dTHP, 2 μM
Method: THP-1 cells were cultured in RPMI-1640 medium (Gibco, Thermo, CA, USA) supplemented with 10% FBS, PS (100 U/mL), and β-Mer (0.05 mM) at 37 °C in a humidified 5% CO2 incubator, and the medium was changed every other day. THP-1 cells were seeded at 4 × 10^5 cells/mL in six-well plates and induced for 48 h by adding medium containing a final concentration of 100 ng/mL PMA.
Then, the differentiated cells were seeded at 5 × 10^4 cells/well on the surface of NCI-H441 cells 10 days after air–liquid culture and continued to co-culture for 24 h.
as §1

LLC-PK1 cells = assay: Permeability assay, LLC-PK1-MOCK cells; type: in vitro ADME; conditions: LLC-PK1, 2 μM, Mean ± SD, n = 3
Method: When the cell transport system was mature in culture, experiments were performed. […] When assessing permeability in basolateral to apical (B-A) direction, 100 μL of pre-warmed Buffer B and 600 μL of pre-warmed test solutions were added to the apical and basolateral compartments, respectively. The Transwells® were placed in an incubator at 37 °C and 5% CO2 for a duration of 2 h. At the end of the incubation period, the samples in the apical and basolateral sides were collected separately and were briefly kept at a temperature of −40 °C for LC-MS/MS analysis. […] The cells were transferred to Transwell® plates (Corning, NY, USA) at a density of 2 × 10^4 cells/well with 200 μL of cell suspension per well, while 850 μL of complete medium was added to the basolateral chamber. […] The samples were collected separately and were briefly kept at a temperature of −40 °C for LC-MS/MS analysis.

A549 cells = assay: Uptake study by A549 cells; type: in vitro ADME, human; conditions: 10 µM, 37 °C or 4 °C
Method: A549 cells were cultured in DMEM medium supplemented with 10% FBS and PS (100 U/mL) at 37 °C in a humidified 5% CO2 incubator. Cells were seeded on 24-well plates at a density of 3 × 10^4 cells/well. For the uptake assay, the DMEM media were removed, and the cells were washed with pre-warmed Hank’s buffer three times (1 mL/well). The third washing buffer was retained in the wells, and the plate was placed in an incubator at 37 °C or 4 °C for 30 min prior to the initiation of the uptake experiment. Following the removal of the washing buffer, 200 μL of pre-warmed test drug solution (Hank’s buffer containing the 10 µM peramivir) was added into each well, and the plates were incubated at 37 °C or 4 °C for 2, 5, and 15 min. Then the incubation solution was removed, and the cells were washed with ice-cold transportation buffer three times (1 mL/well). A total of 0.2 mL pure water was added to each well to lyse the cells by repeated freezing and thawing (−196 °C~37 °C, three times). The cell lysate was collected and stored at −40 °C for LC-MS/MS analysis and protein measurement.

human OCT1 = target: T1, human OCT1 (Homo sapiens, UniProt O15245); assay: Uptake study, HEK293 cells overexpressing OCT1; type: in vitro ADME
T1 construct: host or cells: HEK293 (HEK293-OCT1); control HEK293-MOCK
T1 sequence (O15245 1-554): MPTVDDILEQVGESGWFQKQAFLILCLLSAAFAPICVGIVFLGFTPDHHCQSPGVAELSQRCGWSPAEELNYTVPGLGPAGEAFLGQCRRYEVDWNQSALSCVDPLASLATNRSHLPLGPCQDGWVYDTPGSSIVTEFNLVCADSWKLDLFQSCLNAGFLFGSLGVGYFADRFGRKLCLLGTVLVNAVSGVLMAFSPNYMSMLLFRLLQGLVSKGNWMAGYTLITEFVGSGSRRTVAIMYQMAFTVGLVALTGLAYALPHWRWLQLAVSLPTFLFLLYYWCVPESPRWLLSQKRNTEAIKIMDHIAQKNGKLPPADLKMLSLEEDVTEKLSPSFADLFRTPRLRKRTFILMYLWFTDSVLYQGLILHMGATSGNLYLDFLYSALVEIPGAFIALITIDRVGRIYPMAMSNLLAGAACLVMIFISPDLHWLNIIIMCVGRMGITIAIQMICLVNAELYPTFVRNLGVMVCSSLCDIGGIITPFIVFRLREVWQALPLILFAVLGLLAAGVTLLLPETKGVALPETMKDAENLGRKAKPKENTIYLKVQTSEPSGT
Method: (§2) All cells (HEK293-MOCK, HEK293-OCT1, HEK293-OCT2, MDCK-MOCK, MDCK-OCTN1, and MDCK-OCTN2) were cultured in DMEM medium supplemented with 10% FBS and PS (100 U/mL), at 37 °C in a humidified 5% CO2 incubator. Cells were seeded on 24-well plates at a density of 1 × 10^4 cells/well. For the uptake assay, the DMEM media were removed, and the cells were washed with pre-warmed Hank’s buffer three times (1 mL/well). Subsequent addition of inhibitor-free/inhibitor-containing buffer was pre-incubated for 30 min at 37 °C prior to the initiation of the uptake experiment. After the pre-incubating buffer was removed, 200 μL of pre-warmed test drugs solution (Hank’s buffer containing 10 µM and 50 µM peramivir) or a mixture of test drugs and inhibitor was added into each well, and the plates were incubated at 37 °C for 5 min. At the end of incubation, cells were washed and lysed as described above. The cell lysate was collected and stored at −40 °C for LC-MS/MS analysis and protein measurement. The negative control (MOCK cells) and positive control were included simultaneously.

[2] = tested on: overexpressed cell lines (uptake transporters); assay: Uptake study by overexpression cell lines, 10 μM substrate; type: in vitro ADME; conditions: substrate concentration 10 μM
Method: as §2

[3] = oral; cited from earlier work
Calu-3 cell model = assay: Bidirectional transport, Calu-3 air-liquid culture model; conditions: Calu-3, 2 μM, Mean ± SD, n = 3

For `CCC(CC)[C@H](NC(C)=O)[C@@H]1[C@H](O)[C@@H](C(=O)O)C[C@H]1N=C(N)N` [Peramivir], the ER (NCI-H441 cell model) was 1.11, the “Papp A-B” value (NCI-H441 cell model; Mean ± SD, n = 3) was 1.15 ± 0.16 ×10−6 cm/s and the “Papp B-A” value (NCI-H441 cell model; Mean ± SD, n = 3) was 1.28 ± 0.36 ×10−6 cm/s. For the same molecule, the ER [1] was 0.75, the “Papp A-B” value ([1]; Mean ± SD, n = 3) was 1.19 ± 0.16 ×10−6 cm/s and the “Papp B-A” value ([1]; Mean ± SD, n = 3) was 0.9 ± 0.17 ×10−6 cm/s. For the same molecule, the “Papp A-B” value (LLC-PK1 cells) was “BLQ”, the “Papp B-A” value (LLC-PK1 cells) was 0.21 ± 0.04 ×10−6 cm/s and the “uptake rate in A549 cell model” value (A549 cells) was “low”. For the same molecule, the OCT1 substrate status (human OCT1; HEK293-OCT1) was “does not act as a substrate”, the “transporter-mediated uptake ratio (UR)” value (human OCT1; HEK293-OCT1, 50 μM) was under 1 and the “inhibition ratio (IR)” value (human OCT1; HEK293-OCT1, 50 μM, inhibitor verapamil (200 μM)) was “exceeding 98.51%”. The “concentration of peramivir in uptake experiment (below the detection limit)” value [2] was under 2 nM, the oral bioavailability [3] was 3% and the “Papp A-B” value (Calu-3 cell model) was “BLQ”. For the same molecule, the “Papp B-A” value (Calu-3 cell model) was “BLQ”.
